pEC50: −log10 of the molar value. Square brackets hold non-standard residues; d marks the D form. Peptide text beside a SMILES is read from it. d2Nal = N[C@H](Cc1ccc2ccccc2c1)C(=O)O; 3Amb = NCc1cccc(C(=O)O)c1

The species named for this assay is Rattus norvegicus. The experiment in a line: In vitro release of growth hormone by rat pituitary assay. The format is functional.
As a reminder, the pEC50 is −log10 of the EC50, conventionally taken in molar units. Regarding `NCCCC[C@H](NC(=O)[C@@H](Cc1ccccc1)NC(=O)[C@@H](Cc1ccc2ccccc2c1)NC(=O)c1ccc(CN)s1)C(N)=O`, the pEC50 was 6.68.
On to `NCCCC[C@H](NC(=O)[C@@H](Cc1ccccc1)NC(=O)[C@@H](Cc1ccc2ccccc2c1)NC(=O)c1ccccc1CN)C(N)=O`, for which the pEC50 is 7.07.
Compound `NCCCC[C@H](NC(=O)[C@@H](Cc1ccccc1)NC(=O)[C@@H](Cc1ccc2ccccc2c1)NC(=O)c1cccc(CN)c1)C(N)=O` (H-[3Amb][d2Nal][dF]K-NH2) gave a pEC50 of 8.15.
`NCCCC[C@H](NC(=O)[C@@H](Cc1ccccc1)NC(=O)[C@@H](Cc1ccc2ccccc2c1)NC(=O)c1sccc1CN)C(N)=O` had a pEC50 of 7.57.
`NCCCC[C@H](NC(=O)[C@@H](Cc1ccccc1)NC(=O)[C@@H](Cc1ccc2ccccc2c1)NC(=O)c1cc(CN)cs1)C(N)=O` gave a pEC50 of 6.17.
The same measure for `C[C@H](N)C(=O)N[C@@H](Cc1c[nH]cn1)C(=O)N[C@H](Cc1ccc2ccccc2c1)C(=O)N[C@H](Cc1ccccc1)C(=O)N[C@@H](CCCCN)C(N)=O`: 8.22.

The values are drawn from ChEMBL document CHEMBL1151091, “Aminomethylthiophene-2-carboxylic acids as dipeptide mimetic in new growth hormone secretagogues” (Bioorg Med Chem Lett, 1997).
